The values below come from ChEMBL document CHEMBL3817789 (2016).

By MIC is commonly meant the least concentration at which growth counts as inhibited. A higher MIC goes with a need for much substance. One may read the MIC80 as the lowest concentration that inhibits either 80% of growth or 80% of the strains tested, depending on the study. The low end stands for greater potency, the high end for weaker potency.

Common to all, as to type: functional
The test system of assay [1] is Staphylococcus aureus. The assay is described as follows: Antibacterial activity against methicillin-sensitive Staphylococcus aureus isolate SDS15016 after 24 hrs by broth microdilution method. The settings on record: isolate SDS15016, 24 h. On the technique in general: Broth dilution looks for growth in wells or tubes with falling amounts of substance.
For assay [2], the system named is Staphylococcus aureus. Nature of the assay: Antibacterial activity against methicillin-resistant Staphylococcus aureus isolate SDSM1503 after 24 hrs by broth microdilution method. The settings on record: isolate SDSM1503, 24 h.
The next assay has as its system Candida albicans. The assay is described as follows: Antifungal activity against clinical isolates of Candida albicans SC5314 after 48 hrs by broth microdilution method. The settings on record: SC5314, 48 h.

The structures appear in SMILES notation. Converted amounts (≈) assume the structure as drawn. Where only a bound is given, the exact number is not on record here.

Regarding `Oc1cc2ccc1Oc1cc(ccc1O)CCc1ccc(c(O)c1)-c1c(O)cccc1CC2`, the MIC in the assay on Staphylococcus aureus [1] was 2 µg/mL (≈ 4.54 µM); in the assay with Staphylococcus aureus [2], 4 µg/mL (≈ 9.08 µM). The compound further came in with an MIC80 with Candida albicans of more than 64 µg/mL.
As to `Oc1cc2ccc1-c1c(ccc(Br)c1O)CCc1ccc(cc1)Oc1cc(cc(Br)c1O)CC2`, the MIC in the assay on Staphylococcus aureus [1] was 8 µg/mL (≈ 13.7 µM); against Staphylococcus aureus [2], 16 µg/mL (≈ 27.5 µM). In addition, the MIC80 in the assay with Candida albicans was more than 64 µg/mL.
As to `Oc1ccc2cc1Oc1ccc(cc1)CCc1cccc(O)c1-c1ccc(c(Br)c1O)CC2`, the MIC against Staphylococcus aureus [1] stood at 2 µg/mL (≈ 3.97 µM); in the assay with Staphylococcus aureus [2], 8 µg/mL (≈ 15.9 µM). In addition, the MIC80 against Candida albicans was more than 64 µg/mL.
On to `COc1cccc2c1-c1ccc(cc1O)CCc1ccc(O)c(c1)Oc1ccc(cc1)CC2`, for which the minimum inhibitory concentration (MIC) against Staphylococcus aureus [1] was determined as 2 µg/mL (≈ 4.56 µM); against Staphylococcus aureus [2] it was 4 µg/mL (≈ 9.12 µM). The MIC80 in the assay on Candida albicans was more than 64 µg/mL.
For `Oc1ccc2cc1Oc1ccc(cc1)CCc1c(Br)ccc(O)c1-c1ccc(c(Br)c1O)CC2`, the MIC against Staphylococcus aureus [1] was determined as 2 µg/mL (≈ 3.43 µM); in the assay on Staphylococcus aureus [2] it was 4 µg/mL (≈ 6.87 µM). In the assay on Candida albicans, this compound had an MIC80 of 8 µg/mL (≈ 13.7 µM).
As to `Oc1ccc2cc1Oc1ccc(cc1)CCc1cccc(O)c1-c1cc(Br)c(cc1O)CC2`, the figures for the minimal inhibitory concentration (MIC) against Staphylococcus aureus [1] and with Staphylococcus aureus [2] were 2 µg/mL (≈ 3.97 µM) and 4 µg/mL (≈ 7.95 µM), respectively. The same compound had an MIC80 in the assay with Candida albicans of more than 64 µg/mL.
The corresponding values for `Oc1cc2ccc1-c1c(O)cccc1CCc1ccc(cc1)Oc1cc(cc(O)c1O)CC2` are 2 µg/mL (≈ 4.54 µM), 8 µg/mL (≈ 18.2 µM) and more than 64 µg/mL.
With `Oc1ccc2cc1Oc1ccc(cc1)CCc1ccc(Br)c(O)c1-c1ccc(c(Br)c1O)CC2`, the results for the MIC with Staphylococcus aureus [1] and in the assay with Staphylococcus aureus [2] were 4 µg/mL (≈ 6.87 µM) and 16 µg/mL (≈ 27.5 µM), respectively. The MIC80 with Candida albicans was more than 64 µg/mL.
For the compound `Oc1ccc2cc1Oc1ccc(cc1)CCc1ccc(Br)c(O)c1-c1cc(Br)c(cc1O)CC2`, the MIC against Staphylococcus aureus [1] is 2 µg/mL (≈ 3.43 µM); in the assay with Staphylococcus aureus [2] it was 4 µg/mL (≈ 6.87 µM). In the assay with Candida albicans, this compound gave an MIC80 of more than 64 µg/mL.
As to `COc1cc2ccc1-c1c(O)cccc1CCc1ccc(cc1)Oc1cc(ccc1O)CC2`, the MIC in the assay with Staphylococcus aureus [1] was found to be 2 µg/mL (≈ 4.56 µM); with Staphylococcus aureus [2], 8 µg/mL (≈ 18.2 µM). The MIC80 against Candida albicans is more than 64 µg/mL.
The corresponding values for `Oc1cc2ccc1Oc1cc(cc(O)c1O)CCc1ccc(c(O)c1)-c1c(O)cccc1CC2` are 8 µg/mL (≈ 17.5 µM), 16 µg/mL (≈ 35 µM) and more than 64 µg/mL.
`Oc1ccc2cc1Oc1ccc(cc1)CCc1c(Br)ccc(O)c1-c1cc(Br)c(cc1O)CC2`: the minimal inhibitory concentration (MIC) with Staphylococcus aureus [1] amounted to 2 µg/mL (≈ 3.43 µM); in the assay on Staphylococcus aureus [2] it was 4 µg/mL (≈ 6.87 µM). In addition, the MIC80 against Candida albicans was 8 µg/mL (≈ 13.7 µM).
`Cc1onc(-c2ccccc2)c1C(=O)N[C@@H]1C(=O)N2[C@@H]1SC(C)(C)[C@@H]2C(=O)[O-].[Na+]`: the MIC against Staphylococcus aureus [1] was 8 µg/mL; with Staphylococcus aureus [2], more than 128 µg/mL.
On to `CO/N=C(\C(=O)N[C@@H]1C(=O)N2C(C(=O)O)=C(COC(C)=O)CS[C@H]12)c1csc(N)n1` [CEFOTAXIME], for which the values for the MIC with Staphylococcus aureus [1] and with Staphylococcus aureus [2] were 4 µg/mL (≈ 8.78 µM) and more than 128 µg/mL, respectively.
With `CC(C)(O/N=C(\C(=O)N[C@@H]1C(=O)N2C(C(=O)[O-])=C(C[n+]3ccccc3)CS[C@H]12)c1csc(N)n1)C(=O)O` [CEFTAZIDIME], the MIC in the assay with Staphylococcus aureus [1] is 4 µg/mL (≈ 7.32 µM); against Staphylococcus aureus [2], more than 128 µg/mL.
Take `Cc1onc(-c2ccccc2Cl)c1C(=O)N[C@@H]1C(=O)N2[C@@H]1SC(C)(C)[C@@H]2C(=O)O` [CLOXACILLIN]: the minimum inhibitory concentration (MIC) with Staphylococcus aureus [1] was 0.5 µg/mL (≈ 1.15 µM); against Staphylococcus aureus [2], more than 128 µg/mL.
As for `OC(Cn1cncn1)(Cn1cncn1)c1ccc(F)cc1F` [FLUCONAZOLE], in the assay with Candida albicans, the MIC80 was determined as 2 µg/mL (≈ 6.53 µM).
